According to ChEMBL document CHEMBL1145802, “Dual probes for the dopamine transporter and sigma1 receptors: novel piperazinyl alkyl-bis(4'-fluorophenyl)amine analogues as potential cocaine-abuse therapeutic agents” (J Med Chem, 2003):

Tests used:
[1] = target: Monoamine transporters; serotonin & dopamine (Rattus norvegicus) (UniProt P31652+P23977); assay: Ratio for the binding affinities of dopamine transporter over serotonin transporter; format: protein assay
[2] = species on record: Cavia porcellus; assay: Ratio of binding affinities for dopamine transporter over sigma-1 receptor
[3] = target: Sodium-dependent serotonin transporter (Rattus norvegicus, UniProt P31652); assay: Binding affinity against serotonin transporter by displacement of [3H]citalopram in rat brain; format: tissue-based
Sequence of Sodium-dependent serotonin transporter (P31652 whole entry): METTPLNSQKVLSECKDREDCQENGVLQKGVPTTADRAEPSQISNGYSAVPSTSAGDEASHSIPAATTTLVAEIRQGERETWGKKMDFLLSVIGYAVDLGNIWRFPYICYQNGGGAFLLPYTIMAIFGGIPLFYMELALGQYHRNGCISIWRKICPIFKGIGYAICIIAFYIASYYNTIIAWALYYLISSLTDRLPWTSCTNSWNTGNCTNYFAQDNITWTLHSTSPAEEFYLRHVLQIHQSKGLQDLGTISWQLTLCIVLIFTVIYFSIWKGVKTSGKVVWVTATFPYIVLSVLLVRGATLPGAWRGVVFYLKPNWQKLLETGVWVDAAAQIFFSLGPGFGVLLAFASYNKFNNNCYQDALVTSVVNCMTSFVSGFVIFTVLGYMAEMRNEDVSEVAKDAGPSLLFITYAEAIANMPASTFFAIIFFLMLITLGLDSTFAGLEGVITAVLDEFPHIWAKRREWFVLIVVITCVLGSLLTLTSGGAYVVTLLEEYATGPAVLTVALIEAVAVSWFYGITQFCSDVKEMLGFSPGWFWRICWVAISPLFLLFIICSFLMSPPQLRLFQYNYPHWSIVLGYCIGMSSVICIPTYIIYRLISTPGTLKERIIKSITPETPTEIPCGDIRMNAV

[4] = target: Monoamine transporters; Norepininephrine & dopamine (Rattus norvegicus) (UniProt P23977+Q9WTR4); assay: Ratio of binding affinities for dopamine and norepinephrine transporters; format: protein assay
[5] = target: Norepinephrine transporter (Rattus norvegicus, UniProt Q9WTR4); assay: Displacement of [3H]nisoxetine from rat brain norepinephrine transporter; format: tissue-based
Sequence of Norepinephrine transporter (Q9WTR4 whole entry): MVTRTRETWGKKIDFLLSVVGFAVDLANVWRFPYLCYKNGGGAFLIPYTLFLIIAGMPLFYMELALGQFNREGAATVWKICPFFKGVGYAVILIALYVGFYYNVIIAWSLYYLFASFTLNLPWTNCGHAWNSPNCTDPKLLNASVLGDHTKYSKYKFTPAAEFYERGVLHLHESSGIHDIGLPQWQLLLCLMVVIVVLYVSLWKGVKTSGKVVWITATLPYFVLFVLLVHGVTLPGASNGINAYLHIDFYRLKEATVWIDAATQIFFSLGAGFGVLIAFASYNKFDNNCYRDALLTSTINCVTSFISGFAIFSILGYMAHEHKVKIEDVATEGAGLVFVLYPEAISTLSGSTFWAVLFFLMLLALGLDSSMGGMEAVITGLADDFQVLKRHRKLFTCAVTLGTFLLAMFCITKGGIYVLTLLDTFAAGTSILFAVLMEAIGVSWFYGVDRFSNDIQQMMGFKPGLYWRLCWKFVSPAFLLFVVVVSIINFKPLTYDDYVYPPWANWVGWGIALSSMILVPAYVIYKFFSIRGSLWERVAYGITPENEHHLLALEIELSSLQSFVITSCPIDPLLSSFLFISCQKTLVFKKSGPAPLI

[6] = target: Sodium-dependent dopamine transporter (Rattus norvegicus, UniProt P23977); assay: Binding affinity against dopamine transporter was determined by the displacement of [3H]WIN-35428 radioligand in rat brain; format: tissue-based
Sequence of Sodium-dependent dopamine transporter (P23977 whole entry): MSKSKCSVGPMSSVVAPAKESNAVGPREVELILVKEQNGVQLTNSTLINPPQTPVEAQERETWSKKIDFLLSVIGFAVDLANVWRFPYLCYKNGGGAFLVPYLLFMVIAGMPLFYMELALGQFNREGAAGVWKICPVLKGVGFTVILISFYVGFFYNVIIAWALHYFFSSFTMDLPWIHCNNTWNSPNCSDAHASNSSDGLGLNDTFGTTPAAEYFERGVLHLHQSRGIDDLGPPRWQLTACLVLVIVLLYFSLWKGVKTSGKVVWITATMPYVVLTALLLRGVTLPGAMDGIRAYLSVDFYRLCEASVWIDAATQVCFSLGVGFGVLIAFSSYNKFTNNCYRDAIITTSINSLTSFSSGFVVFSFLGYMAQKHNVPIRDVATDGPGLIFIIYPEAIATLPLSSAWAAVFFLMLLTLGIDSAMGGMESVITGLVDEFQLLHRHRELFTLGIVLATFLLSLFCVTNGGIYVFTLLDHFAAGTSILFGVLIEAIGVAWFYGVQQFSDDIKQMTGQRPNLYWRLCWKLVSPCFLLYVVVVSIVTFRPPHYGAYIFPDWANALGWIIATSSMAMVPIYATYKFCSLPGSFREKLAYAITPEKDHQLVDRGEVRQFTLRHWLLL

[7] = target: Sigma 2 receptor; assay: Binding affinity against Sigma receptor type 2 was determined by the displacement of [3H]DTG/dextrallorphan radioligand; parameters: species or system Rattus norvegicus

Sequence of Monoamine transporters; serotonin & dopamine (Rattus norvegicus) (P23977 whole entry, looked up): as the sequence (P23977 whole entry) above
Sequence of Monoamine transporters; serotonin & dopamine (Rattus norvegicus) (P31652 whole entry, looked up): as the sequence (P31652 whole entry) above

Row | Structure (SMILES) | Ratio [1] | Ratio [2] | Ki [3] [nM] | Ratio [4] | Ki [5] [nM] | Ki [6] [nM] | Ki [7] [nM]
1 | C[C@@H]1CN(CCCn2c3ccc([N+](=O)[O-])cc3c3cc([N+](=O)[O-])ccc32)C[C@@H](C)N1 |  |  |  |  |  | 174000 | 
2 | C[C@@H]1CN(CCCn2c3ccccc3c3cc([N+](=O)[O-])ccc32)C[C@@H](C)N1 |  | 5.5 |  |  |  | 109 | 
3 | CCCN1CCC[C@@H](c2cccc(O)c2)C1 [PRECLAMOL] |  |  |  |  |  | 3270 | 
4 | C[C@@H]1CN(CCCn2c3ccccc3c3ccccc32)C[C@@H](C)N1C |  | 1.3 |  |  |  | 436 | 
5 | CCN(CC)CCOC(=O)C1(c2ccccc2)CCCC1 |  |  |  |  |  | 5180 | 
6 | C[C@@H]1CN(CCCn2c3ccc(Br)cc3c3cc(Br)ccc32)C[C@@H](C)N1 |  | 1.1 |  |  |  | 3890 | 
7 | OC(CCN1CCN(CCCN(c2ccc(F)cc2)c2ccc(F)cc2)CC1)c1ccccc1 (configuration not stated) |  |  | 803 |  |  | 8.5 | 
8 | C[C@@H]1CN(CCCn2c3ccccc3c3cc(N)ccc32)C[C@@H](C)N1 |  | 2.4 |  |  |  | 2400 | 
9 | C[C@@H]1CN(CCCn2c3ccccc3c3ccccc32)C[C@@H](C)N1CCCc1ccccc1 |  | 0.4 |  |  |  | 263 | 

Now from value to molecule:

Row | Ratio [1] | Ratio [2] | Ki [3] [nM] | Ratio [4] | Ki [5] [nM] | Ki [6] [nM] | Ki [7] [nM] | Structure (SMILES)
10 | 67 | 3.7 | 1210 | 38 | 682 | 18.1 |  | Fc1ccc(N(CCCN2CCN(CCCc3ccccc3)CC2)c2ccc(F)cc2)cc1
11 | 140 | 0.5 | 3730 | 190 | 5210 | 27.6 | 78.1 | Fc1ccc(N(CCCN2CCN(Cc3ccccc3)CC2)c2ccc(F)cc2)cc1
12 | 2 | 23 | 133 | 7 | 396 | 60.8 | 385 | Fc1ccc(N(CCCN2CCNCC2)c2ccc(F)cc2)cc1
13 | 18 | 0.1 |  | > 110 |  | 272 | 216 | C[C@@H]1CN(CCCN(c2ccccc2)c2ccccc2)C[C@@H](C)N1CCc1ccc(Cl)c(Cl)c1
14 | 94 | 0.5 |  | 45 |  | 22.8 | 18.6 | C[C@@H]1CN(CCCN(c2ccc(F)cc2)c2ccc(F)cc2)C[C@@H](C)N1CCCc1ccccc1
15 | 20 | 1.6 |  | 60 |  |  |  | C[C@@H]1CN(CCCN(c2ccccc2)c2ccccc2)C[C@@H](C)N1CCCc1ccccc1
16 | 170 | 1.6 |  | 219 |  | 77.1 |  | C[C@@H]1CN(CCCN(c2ccc(F)cc2)c2ccc(F)cc2)C[C@@H](C)N1
17 | 87 | 0.2 |  | 8 |  |  |  | C[C@@H]1CN(CCCN(c2ccccc2)c2ccccc2)C[C@@H](C)N1
18 |  |  | 4350 |  |  | 180 |  | C[C@@H]1CN(CCCN(c2ccc(F)cc2)c2ccc(F)cc2)C[C@@H](C)N1CCc1ccc(Cl)c(Cl)c1
